Measured values reported in US6096725A, “Methods of using αGal oligosaccharides as immune system targeting agents” (Neose Technologies, Inc., priority 1997, dated 2000).

Key:
[1] = test system: mouse endothelial cell line MAE; assay: Cytotoxicity of baboon serum against MAE cells with exogenously added αGal pentasaccharide; assay type: cell-based
Description: FIG. 4 Cytotoxicity of serum from a baboon receiving αGal pentasaccharide (αGal-LNnT) intravenously. Shaded circles represent cytotoxicity of serum as recovered from baboon against mouse endothelial cell line MAE. Other lines indicate varying concentrations of exogenously added αGal-pentasaccharide into cytotoxicity assay. Added concentrations of the αGal pentasaccharide are depicted as follows: 2.0 mM, open circle; 1.0 mM, ×; 0.5 mM, diamond; and 0.25 mM, open square. […] Sera were incubated with serial dilutions of αGal oligosaccharides at 37° C. for 1 hour, then added to αGal-expressing monolayers (pig kidney cells, PK-15) in Terasaki plates for 1 hour at 37° C. Cytotoxicity was mediated by either endogenous complement, or the sera were de-complemented (heat inactivated for 30 minutes at 56° C.) and exogenous (rabbit) complement was added. After washing away excess serum, the viable dye mix "live-dead" (calcein AM/ethidium homodimer (Molecular Probes Inc., Eugene Oreg.)) was added and monolayers were scored for viability by fluorescence microscopy. Three Baboons were outfitted with indwelling venous and arterial catheters to the femoral vessels, and held in place with the aid of a jacket. Oligosaccharides were administered through the catheter in a 15 minute continuous infusion.

[2] = test system: pig kidney endothelial cell line, PK-15; assay type: cell-based; settings: 240 min
Description: Sera were incubated with serial dilutions of αGal oligosaccharides at 37° C. for 1 hour, then added to αGal-expressing monolayers (pig kidney cells, PK-15) in Terasaki plates for 1 hour at 37° C. Cytotoxicity was mediated by either endogenous complement, or the sera were de-complemented (heat inactivated for 30 minutes at 56° C.) and exogenous (rabbit) complement was added. After washing away excess serum, the viable dye mix "live-dead" (calcein AM/ethidium homodimer (Molecular Probes Inc., Eugene Oreg.)) was added and monolayers were scored for viability by fluorescence microscopy.
The two xenotransplant baboons were outfitted with an indwelling catheter to the femoral vein to infuse compound and a catheter to the femoral artery for blood sampling. Following the transplant procedure, but just prior to providing circulatory access to the xenograft, the oligosaccharide was administered by i.v. pump through the catheter in a 15 min loading dose, followed by continuous 4 hour infusion to achieve 2.5 mM blood concentration (as determined by calculations presented in Table 2). […] Blood specimens collected for plasma were immediately centrifuged and the plasma withdrawn and stored frozen at -20° C. […] Arterial pressure was monitored in the recipient baboon by intermittent automatic cuff recordings.

[3] = test system: anti-αGal IgG and IgM antibodies; assay: In vitro mouse laminin ELISA: soluble oligosaccharides as neutralizers of anti-αGal antibodies; assay type: binding; settings: serum pre-incubated with oligosaccharide 1 hour 37° C.; result in words
Excerpt: In vitro laminin ELISA evaluation of αGal oligosaccharides as neutralizers of anti-αGal antibodies. Mouse laminin is a basement membrane glycoprotein that expresses 50-70 oligosaccharides terminating in Galα1-3Gal, i.e., the αGal motif (Arumugham et al., 1986, Biochem. Biophys. Aeta 883:112). In this assay, immobilization of mouse laminin on microtiter plates serves as a capture ligand for anti-αGal antibodies. […] The example provides a method by which to determine the ability of αGal oligosaccharides and pharmaceutically acceptable derivative of the invention to bind to anti-αGal antibodies and to thereby remove these antibodies from the serum, neutralize anti-αGal antibodies, and/or target anti-αGal directed complement-mediated lytic attack to specific tissue or cell types. The example also provides a method by which the effectiveness of the methods of the invention can be evaluated and dosages determined.
Sera were mixed with serial dilutions of αGal oligosaccharides (αGal-CHO) at 37° C. for 1 hour, then added to mouse laminin-coated microtiter plates and incubated for 1 hour to allow binding. The microtiter plates were coated with 20 μg/mL mouse laminin in 50 mM NaHCO3 buffer, pH 9.5 at 4° C. overnight, blocked with SuperBlock solution (Pierce) for 2 hours, and then washed 3 times with SuperBlock solution. After washing excess serum away, bound IgG and IgM was measured by adding goat anti-human IgG (or IgM) conjugated to alkaline phosphatase and incubating for 1 hour, washing, and adding substrate (pNPP).

[4] = test system: anti-αGal antibody; assay: ELISA of reactive anti-αGal antibody in sera of xenotransplanted baboons; assay type: binding, baboon; settings: period during which serum concentration exceeded 1 mM; data not shown
Description: The two xenotransplant baboons were outfitted with an indwelling catheter to the femoral vein to infuse compound and a catheter to the femoral artery for blood sampling. Following the transplant procedure, but just prior to providing circulatory access to the xenograft, the oligosaccharide was administered by i.v. pump through the catheter in a 15 min loading dose, followed by continuous 4 hour infusion to achieve 2.5 mM blood concentration (as determined by calculations presented in Table 2). […] Blood specimens collected for plasma were immediately centrifuged and the plasma withdrawn and stored frozen at -20° C. Blood specimens collected for serum were clotted at 4° C. overnight and the withdrawn serum frozen at -20° C. The αGal pentasaccharide was prepared according to the enzymatic methods set forth in example 6.2 and stored as a dry, white, solid powder. The oligosaccharide was dissolved in 250 mL sterile infusion grade saline to a concentration of 0.154 g/mL, or 177 mM. Induction anesthesia was with ketamine hydrochloride 5 mg/kg/body weight in and 0.5 mg/kg of xylazine iv. Intravenous fluid of approximately 20 ml/kg body weight was given during the course of the operative procedure through either a peripheral or central vein. Atropine 0.5 mg/kg was given iv. […] Arterial pressure was monitored in the recipient baboon by intermittent automatic cuff recordings. […]

[5] = test system: anti-αGal antibody; assay: In vivo blood serum analysis: serum anti-αGal antibody neutralizing capacity in baboons; design: species or system baboon; settings: monovalent oligosaccharide
Excerpt: Pharmokinetics of αGal trisaccharides and αGal pentasaccharides in baboons. This example presents a study of the pharmokinetic profile and serum anti-αGal antibody neutralizing capacity in baboons of αGal trisaccharides and αGal pentasaccharides and previews the compounds' suitability for use in the prevention of hyperacute rejection of porcine organs xenotransplanted into baboons.
Three Baboons were outfitted with indwelling venous and arterial catheters to the femoral vessels, and held in place with the aid of a jacket. Oligosaccharides were administered through the catheter in a 15 minute continuous infusion.

CC(=O)N[C@H]1[C@H](O[C@H]2[C@@H](O)[C@@H](CO)O[C@@H](O[C@H]3[C@H](O)[C@@H](O)C(O)O[C@@H]3CO)[C@@H]2O)O[C@H](CO)[C@@H](O[C@@H]2O[C@H](CO)[C@H](O)[C@H](O[C@H]3O[C@H](CO)[C@H](O)[C@H](O)[C@H]3O)[C@H]2O)[C@@H]1O (stereo partly drawn) [αGal pentasaccharide, Galα1-3Galβ1-4GlcNAcβ1-3Galβ1-4Glc]
Inhibition of MAE cell cytotoxicity, in words ([1]; baboon serum (FIG. 4), similar results with pig PK15 cells): fully inhibits MAE cell cytotoxicity
Concentration of αGal pentasaccharide that inhibits serum cytotoxicity of MAE cells ([1]; baboon serum, exogenously added oligosaccharide (FIG. 4)): greater than 1 mM
Reduction of cytotoxicity of baboon sera against PK-15 [2]: 85-95%
Inhibition of anti-αGal IgG and IgM antibody binding to immobilized mouse laminin [3]: slightly better inhibitor of both IgG and IgM binding to laminin than αGal disaccharide
Reactive anti-αGal antibody titer by ELISA (mouse laminin, α-Gal-albumin neoglycoconjugates, PK-15 cells) [4]: pronounced reduction in the anti-αGal antibody titer
Minimal serum (circulating) concentration required to inhibit hyperacute rejection / be efficacious in vivo [5]: ≥ 1 mM
